# Columns and labels:
# [1] = Lipophilicity log D (pH 7.4), shake-flask method; type: physicochemical; conditions: 1-octanol / PBS pH 7.4
# Method: The lipophilic/hydrophilic character of [^61Cu]Cu-NODAGA-PSMA I&T was assessed by the determination of the distribution coefficient (D), expressed as log D at physiological pH (log D (pH 7.4)), between an aqueous and an organic phase following the “shake-flask” method. [^61Cu]Cu-NODAGA-PSMA I&T (1 μM) was added to a 50:50 pre-saturated mixture solution of 1-octanol and phosphate-buffered saline (PBS pH 7.4). The mixture was vortexed for 30 min and then centrifuged at 3000 rpm to achieve phase separation. Aliquots from each phase were collected and measured in a gamma counter. The distribution coefficient was calculated as the average logarithmic values of the ratio between the radioactivity in the organic and the PBS phase.
# [2] = biological target: T1, PSMA-positive malignant lesions (Homo sapiens, UniProt Q04609); assay: Human clinical trial, PET/CT comparison between Pylarify and [^61Cu]Cu-NODAGA-PSMA I&T; type: in vivo
# T1 construct: from tissue; host or cells: prostate cancer lesions (bone and nodal metastases, prostate) of eight trial subjects
# T1 sequence (Q04609 whole entry): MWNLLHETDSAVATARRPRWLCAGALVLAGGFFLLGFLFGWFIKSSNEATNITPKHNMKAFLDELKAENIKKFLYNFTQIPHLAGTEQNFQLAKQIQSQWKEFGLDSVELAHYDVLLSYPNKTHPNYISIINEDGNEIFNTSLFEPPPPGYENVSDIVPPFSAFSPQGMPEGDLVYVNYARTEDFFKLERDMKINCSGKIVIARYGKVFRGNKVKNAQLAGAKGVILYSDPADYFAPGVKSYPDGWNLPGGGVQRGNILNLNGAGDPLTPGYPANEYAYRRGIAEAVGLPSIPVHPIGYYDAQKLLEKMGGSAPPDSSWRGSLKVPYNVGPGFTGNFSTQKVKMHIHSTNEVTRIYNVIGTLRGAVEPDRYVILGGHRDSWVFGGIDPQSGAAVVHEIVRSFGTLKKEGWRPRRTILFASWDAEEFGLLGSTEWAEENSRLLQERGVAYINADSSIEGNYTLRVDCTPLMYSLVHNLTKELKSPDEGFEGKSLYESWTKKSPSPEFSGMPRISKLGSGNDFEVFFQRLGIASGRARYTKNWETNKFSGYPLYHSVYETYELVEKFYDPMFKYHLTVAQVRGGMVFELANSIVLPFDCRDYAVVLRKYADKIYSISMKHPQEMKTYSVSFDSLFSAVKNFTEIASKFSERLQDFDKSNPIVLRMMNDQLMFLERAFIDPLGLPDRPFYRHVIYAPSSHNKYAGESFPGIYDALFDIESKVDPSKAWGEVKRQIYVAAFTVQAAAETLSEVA
# Method: This is a phase I, single center, non-randomized trial with 6-10 subjects. Each subject will have biopsy-proven prostate cancer visualized on FDA-approved ^18F-piflufolastat PET/CT performed within 3 weeks of trial recruitment. Each subject will receive a single administration of [^61Cu]Cu-NODAGA-PSMA I&T, followed by PET/CT imaging. Safety of [^61Cu]Cu-NODAGA-PSMA I&T will be evaluated by monitoring for unlikely adverse effects.
# Subjects will undergo administration of 10 mL of 100-300 MBq (2.7-8.1 mCi) [^61Cu]Cu-NODAGA-PSMA I&T composition intravenously described in Table 20, followed by PET/CT imaging 60 (+/−10) minutes post radiotracer administration.
# • Perform and record vital signs. • Place IV catheter. • Obtain blood for whole blood and plasma radioactivity counts prior to radiotracer administration and at 3-5 time points post radiotracer administration, from the following time ranges • a. 15 minutes (+/−10 minutes) • b. 30 minutes (+/−10 minutes) • c. 60 minutes (+/−15 minutes) • d. 120-240 minutes • e. 240-420 minutes • Administer 100-300 MBq ([…]) of [^61Cu]Cu-NODAGA-PSMA I&T composition intravenously. • Perform and record vital signs and assess for adverse reactions 30-60 minutes and 120-240 minutes post radiotracer administration. • Perform PET/CT imaging at 2 or 3 time points post radiotracer administration, from the following time ranges. • a. 60 minutes (+/−15 minutes) • b. 120-240 minutes • c. 240-420 minutes • Perform and record vital signs and assess for adverse reactions 120 (+/−10 minutes) post radiotracer administration. Visit 3—Day after Phone Call • Record any adverse reactions.
# For the secondary objective of effectiveness, the number of suspected PSMA-positive malignant lesions will be calculated in both the standard-of-care ^18F-Piflufolastat PET/CT and the experimental [^61Cu]Cu-NODAGA-PSMA I&T PET/CT. The percentage of patients with any suspected PSMA-positive malignant lesions will be determined for each radiotracer. To assess whether the distribution of the number of lesions was higher with ^18F-Piflufolastat PET/CT or [^61Cu]Cu-NODAGA-PSMA I&T, 1-sided Wilcoxon […] tests for paired data will be performed. To account for the small sample size, results with a P value of less than 0.1 will be considered statistically significant.
smiles,measurement,setting,value
O=C([O-])CN1CCN(CC(=O)[O-])CCN([C@H](CCC(=O)N[C@H](Cc2ccc(O)c(I)c2)C(=O)N[C@H](Cc2ccccc2)C(=O)N[C@H](CCCCNC(=O)CCCCCCC(=O)NCCCC[C@H](NC(=O)N[C@@H](CCC(=O)O)C(=O)O)C(=O)O)C(=O)O)C(=O)O)CC1.[61Cu+2] [[^61Cu]Cu-NODAGA-PSMA I&T],log D (pH 7.4),[1],−2.95±0.08
same,Concordance,[2]; Subject 1,100%
same,% difference from Pylarify results at 1 hour,"[2]; Subject 1, 1 hour",(12%)
same,New Lesions Detected with [^61Cu]Cu-NODAGA-PSMA I&T,"[2]; Subject 1, 1 hour",5
same,Tumor-to-Background Ratio with [^61Cu]Cu-NODAGA-PSMA I&T,"[2]; Subject 1, 1 hour",59.9
same,% difference from Pylarify results at 1 hour,"[2]; Subject 1, 2 hour",(115%)
same,New Lesions Detected with [^61Cu]Cu-NODAGA-PSMA I&T,"[2]; Subject 1, 2 hour",7
same,Tumor-to-Background Ratio with [^61Cu]Cu-NODAGA-PSMA I&T,"[2]; Subject 1, 2 hour",114.5
same,% difference from Pylarify results at 1 hour,"[2]; Subject 1, 4 hour",(154%)
same,New Lesions Detected with [^61Cu]Cu-NODAGA-PSMA I&T,"[2]; Subject 1, 4 hour",8
same,Tumor-to-Background Ratio with [^61Cu]Cu-NODAGA-PSMA I&T,"[2]; Subject 1, 4 hour",135.5
same,Concordance,[2]; Subject 2,100%
same,% difference from Pylarify results at 1 hour,"[2]; Subject 2, 1 hour",(37%)
same,New Lesions Detected with [^61Cu]Cu-NODAGA-PSMA I&T,"[2]; Subject 2, 1 hour",0
same,Tumor-to-Background Ratio with [^61Cu]Cu-NODAGA-PSMA I&T,"[2]; Subject 2, 1 hour",5.3
same,% difference from Pylarify results at 1 hour,"[2]; Subject 2, 2 hour",(−13%)
same,New Lesions Detected with [^61Cu]Cu-NODAGA-PSMA I&T,"[2]; Subject 2, 2 hour",0
same,Tumor-to-Background Ratio with [^61Cu]Cu-NODAGA-PSMA I&T,"[2]; Subject 2, 2 hour",3.4
same,% difference from Pylarify results at 1 hour,"[2]; Subject 2, 4 hour",(−43%)
same,New Lesions Detected with [^61Cu]Cu-NODAGA-PSMA I&T,"[2]; Subject 2, 4 hour",0
same,Tumor-to-Background Ratio with [^61Cu]Cu-NODAGA-PSMA I&T,"[2]; Subject 2, 4 hour",2.2
same,Concordance,[2]; Subject 3,100%
same,% difference from Pylarify results at 1 hour,"[2]; Subject 3, 1 hour",(52%)
same,New Lesions Detected with [^61Cu]Cu-NODAGA-PSMA I&T,"[2]; Subject 3, 1 hour",1
same,Tumor-to-Background Ratio with [^61Cu]Cu-NODAGA-PSMA I&T,"[2]; Subject 3, 1 hour",9.3
same,% difference from Pylarify results at 1 hour,"[2]; Subject 3, 2 hour",(9%)
same,New Lesions Detected with [^61Cu]Cu-NODAGA-PSMA I&T,"[2]; Subject 3, 2 hour",1
same,Tumor-to-Background Ratio with [^61Cu]Cu-NODAGA-PSMA I&T,"[2]; Subject 3, 2 hour",6.7
same,% difference from Pylarify results at 1 hour,"[2]; Subject 3, 4 hour",(274%)
same,New Lesions Detected with [^61Cu]Cu-NODAGA-PSMA I&T,"[2]; Subject 3, 4 hour",3
same,Tumor-to-Background Ratio with [^61Cu]Cu-NODAGA-PSMA I&T,"[2]; Subject 3, 4 hour",23.0
same,Concordance,[2]; Subject 4,100%
same,% difference from Pylarify results at 1 hour,"[2]; Subject 4, 1 hour",(64%)
same,New Lesions Detected with [^61Cu]Cu-NODAGA-PSMA I&T,"[2]; Subject 4, 1 hour",0
same,Tumor-to-Background Ratio with [^61Cu]Cu-NODAGA-PSMA I&T,"[2]; Subject 4, 1 hour",126.2
same,% difference from Pylarify results at 1 hour,"[2]; Subject 4, 2 hour",(110%)
same,New Lesions Detected with [^61Cu]Cu-NODAGA-PSMA I&T,"[2]; Subject 4, 2 hour",2
same,Tumor-to-Background Ratio with [^61Cu]Cu-NODAGA-PSMA I&T,"[2]; Subject 4, 2 hour",161.4
same,% difference from Pylarify results at 1 hour,"[2]; Subject 4, 4 hour",(98%)
same,New Lesions Detected with [^61Cu]Cu-NODAGA-PSMA I&T,"[2]; Subject 4, 4 hour",10
same,Tumor-to-Background Ratio with [^61Cu]Cu-NODAGA-PSMA I&T,"[2]; Subject 4, 4 hour",152.8
same,Concordance,[2]; Subject 5,100%
same,% difference from Pylarify results at 1 hour,"[2]; Subject 5, 1 hour",(98%)
same,New Lesions Detected with [^61Cu]Cu-NODAGA-PSMA I&T,"[2]; Subject 5, 1 hour",0
same,Tumor-to-Background Ratio with [^61Cu]Cu-NODAGA-PSMA I&T,"[2]; Subject 5, 1 hour",53.3
same,% difference from Pylarify results at 1 hour,"[2]; Subject 5, 2 hour",(154%)
same,New Lesions Detected with [^61Cu]Cu-NODAGA-PSMA I&T,"[2]; Subject 5, 2 hour",0
same,Tumor-to-Background Ratio with [^61Cu]Cu-NODAGA-PSMA I&T,"[2]; Subject 5, 2 hour",68.3
same,% difference from Pylarify results at 1 hour,"[2]; Subject 5, 4 hour",(160%)
same,New Lesions Detected with [^61Cu]Cu-NODAGA-PSMA I&T,"[2]; Subject 5, 4 hour",0
same,Tumor-to-Background Ratio with [^61Cu]Cu-NODAGA-PSMA I&T,"[2]; Subject 5, 4 hour",70.0
same,Concordance,[2]; Subject 6,100%
same,% difference from Pylarify results at 1 hour,"[2]; Subject 6, 1 hour",(60%)
same,New Lesions Detected with [^61Cu]Cu-NODAGA-PSMA I&T,"[2]; Subject 6, 1 hour",0
same,Tumor-to-Background Ratio with [^61Cu]Cu-NODAGA-PSMA I&T,"[2]; Subject 6, 1 hour",11.3
same,% difference from Pylarify results at 1 hour,"[2]; Subject 6, 2 hour",(126%)
same,New Lesions Detected with [^61Cu]Cu-NODAGA-PSMA I&T,"[2]; Subject 6, 2 hour",0
same,Tumor-to-Background Ratio with [^61Cu]Cu-NODAGA-PSMA I&T,"[2]; Subject 6, 2 hour",16.0
same,% difference from Pylarify results at 1 hour,"[2]; Subject 6, 4 hour",(230%)
same,New Lesions Detected with [^61Cu]Cu-NODAGA-PSMA I&T,"[2]; Subject 6, 4 hour",0
same,Tumor-to-Background Ratio with [^61Cu]Cu-NODAGA-PSMA I&T,"[2]; Subject 6, 4 hour",23.3
same,Concordance,[2]; Subject 7,100%
same,% difference from Pylarify results at 1 hour,"[2]; Subject 7, 1 hour",(45%)
same,New Lesions Detected with [^61Cu]Cu-NODAGA-PSMA I&T,"[2]; Subject 7, 1 hour",3
same,Tumor-to-Background Ratio with [^61Cu]Cu-NODAGA-PSMA I&T,"[2]; Subject 7, 1 hour",5.6
same,% difference from Pylarify results at 1 hour,"[2]; Subject 7, 2 hour",(70%)
same,New Lesions Detected with [^61Cu]Cu-NODAGA-PSMA I&T,"[2]; Subject 7, 2 hour",3
same,Tumor-to-Background Ratio with [^61Cu]Cu-NODAGA-PSMA I&T,"[2]; Subject 7, 2 hour",6.6
same,% difference from Pylarify results at 1 hour,"[2]; Subject 7, 4 hour",(287%)
same,New Lesions Detected with [^61Cu]Cu-NODAGA-PSMA I&T,"[2]; Subject 7, 4 hour",5
same,Tumor-to-Background Ratio with [^61Cu]Cu-NODAGA-PSMA I&T,"[2]; Subject 7, 4 hour",15.0
same,Concordance,[2]; Subject 8,100%
same,% difference from Pylarify results at 1 hour,"[2]; Subject 8, 1 hour",(−10%)
same,New Lesions Detected with [^61Cu]Cu-NODAGA-PSMA I&T,"[2]; Subject 8, 1 hour",0
same,Tumor-to-Background Ratio with [^61Cu]Cu-NODAGA-PSMA I&T,"[2]; Subject 8, 1 hour",24.2
same,% difference from Pylarify results at 1 hour,"[2]; Subject 8, 2 hour",(29%)
same,New Lesions Detected with [^61Cu]Cu-NODAGA-PSMA I&T,"[2]; Subject 8, 2 hour",0
same,Tumor-to-Background Ratio with [^61Cu]Cu-NODAGA-PSMA I&T,"[2]; Subject 8, 2 hour",34.5
same,% difference from Pylarify results at 1 hour,"[2]; Subject 8, 4 hour",(123%)
same,New Lesions Detected with [^61Cu]Cu-NODAGA-PSMA I&T,"[2]; Subject 8, 4 hour",0
same,Tumor-to-Background Ratio with [^61Cu]Cu-NODAGA-PSMA I&T,"[2]; Subject 8, 4 hour",59.7
same,metastases visualized compared with Pylarify PET/CT,[2]; Subject #1,More osseous metastases were visualized
same,metastases visualized compared with Pylarify PET/CT,[2]; Subject #2,Same number of metastases were observed
same,pelvic nodal metastases seen on PET/CT,"[2]; Subject #3, 4 hours",5
same,metastases visualized compared with Pylarify PET/CT,[2]; Subject #4,More osseous metastases were observed
same,metastases visualized compared with Pylarify PET/CT,[2]; Subject #5,Equal number of osseous metastases were observed
same,metastases visualized compared with Pylarify PET/CT,[2]; Subject #6,One avid 0.4 cm left pelvic sidewall lymph node seen on both
same,metastases visualized compared with Pylarify PET/CT,[2]; Subject #7,More osseous metastases were detected
same,metastases visualized compared with Pylarify PET/CT,[2]; Subject #8,Solitary avid osseous metastasis were observed in both exams
same,detection rate of metastatic lesions compared with Pylarify,[2]; eight subjects,higher detection rate of metastatic lesions
same,"higher tumor-to-background ratio than Pylarify, on average",[2]; eight subjects,90%

# From patent US20260241046A1, “PROSTATE-SPECIFIC MEMBRANE ANTIGEN RECEPTOR-TARGETING RADIOPHARMACEUTICALS AND USES THEREOF” (Nuclidium AG, priority 2024, published 2026)
